Target: C-X-C chemokine receptor type 4 (Homo sapiens, UniProt P61073)
Test: Displacement of fluorescently-labeled-TZ14011 from CXCR4 in human Jurkat cells incubated for 30 mins by fluorescence analysis
Type: cell-based

C-X-C chemokine receptor type 4, sequence (P61073 whole entry): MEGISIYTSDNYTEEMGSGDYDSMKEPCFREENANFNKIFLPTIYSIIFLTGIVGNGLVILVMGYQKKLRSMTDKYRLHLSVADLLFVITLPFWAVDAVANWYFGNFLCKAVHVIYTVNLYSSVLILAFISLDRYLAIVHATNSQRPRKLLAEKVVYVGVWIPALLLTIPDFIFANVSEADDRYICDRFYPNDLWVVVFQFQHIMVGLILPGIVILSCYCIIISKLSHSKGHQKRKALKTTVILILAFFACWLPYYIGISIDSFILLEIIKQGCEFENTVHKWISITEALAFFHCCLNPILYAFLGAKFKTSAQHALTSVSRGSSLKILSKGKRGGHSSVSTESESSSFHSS

SMILES | IC50
CC(=O)N[C@@H](CCCCNC(=O)CSC[C@H]1NC(=O)[C@H](Cc2ccc3ccccc3c2)NC(=O)[C@H](CCCNC(=N)N)NC(=O)[C@H](CCCNC(=N)N)NC(=O)[C@@H](Cc2ccc(O)cc2)NC1=O)C(=O)N1CCC[C@H]1C(=O)N1CCC[C@H]1C(=O)N1CCC[C@H]1C(=O)N1CCC[C@H]1C(=O)N1CCC[C@H]1C(=O)N1CCC[C@H]1C(=O)N1CCC[C@H]1C(=O)N1CCC[C@H]1C(=O)N1CCC[C@H]1C(=O)N1CCC[C@H]1C(=O)N1CCC[C@H]1C(=O)N1CCC[C@H]1C(=O)N1CCC[C@H]1C(=O)N1CCC[C@H]1C(=O)N1CCC[C@H]1C(=O)N1CCC[C@H]1C(=O)N1CCC[C@H]1C(=O)N1CCC[C@H]1C(=O)N[C@@H](CCCCNC(=O)CS[C@H]1NC(=O)[C@H](Cc2ccc3ccccc3c2)NC(=O)[C@H](CCCNC(=N)N)NC(=O)[C@H](CCCNC(=N)N)NC(=O)[C@@H](Cc2ccc(O)cc2)NC1=O)C(N)=O | 44 nM
[N-]=[N+]=NCCCCCC(=O)NCCCC(=O)N[C@@H](CCCCNC(=O)CSC[C@H]1NC(=O)[C@H](Cc2ccc3ccccc3c2)NC(=O)[C@H](CCCNC(=N)N)NC(=O)[C@H](CCCNC(=N)N)NC(=O)[C@@H](Cc2ccc(O)cc2)NC1=O)C(=O)N1CCC[C@H]1C(=O)N1CCC[C@H]1C(=O)N1CCC[C@H]1C(=O)N1CCC[C@H]1C(=O)N1CCC[C@H]1C(=O)N1CCC[C@H]1C(=O)N1CCC[C@H]1C(=O)N1CCC[C@H]1C(=O)N1CCC[C@H]1C(=O)N1CCC[C@H]1C(=O)N1CCC[C@H]1C(=O)N1CCC[C@H]1C(=O)N1CCC[C@H]1C(=O)N1CCC[C@H]1C(=O)N1CCC[C@H]1C(=O)N1CCC[C@H]1C(=O)N1CCC[C@H]1C(=O)N1CCC[C@H]1C(=O)N[C@@H](CCCCNC(=O)CS[C@@H]1NC(=O)[C@H](Cc2ccc3ccccc3c2)NC(=O)[C@H](CCCNC(=N)N)NC(=O)[C@H](CCCNC(=N)N)NC(=O)[C@@H](Cc2ccc(O)cc2)NC1=O)C(N)=O | 86 nM

Source: ChEMBL document CHEMBL3627622, “Exploration of labeling by near infrared dyes of the polyproline linker for bivalent-type CXCR4 ligands” (Bioorg Med Chem, 2015)
